{"source": "patent US20150168386A1", "about": "“METHOD AND SYSTEM FOR IDENTIFYING LEAKY LUNG EPITHELIAL BARRIER” (priority 2013, published 2015)", "key": {"16HBE cells": {"system": "16HBE cells", "test": "flux of mannitol across human bronchial epithelial monolayers", "assay_type": "in vitro ADME", "details": "16HBE cells confluent on semipermeable membrane; lower chamber after 1 hour, colorimetric assay; unstimulated or PolyI:C pretreated 18 hours", "description": "The x-axis indicates the concentration of mannitol applied to the upper chamber of 16HBE cells grown to confluence on a semipermeable membrane. The y-axis indicates the concentration of mannitol detected in the lower chamber after 1 hour, determined using a colorimetric assay (where OD refers to optical density). 16HBE cells were either unstimulated (open bars) or pretreated with the viral mimetic PolyI:C (closed bars) for 18 hours prior to analysis of mannitol permeability. Note that in both unstimulated and PolyI:C-stimulated cells, the mannitol concentration detected in the lower chamber increased steadily with the concentration of mannitol applied to the top chamber (i.e. there was no plateau). This is indicative of movement across the monolayer via paracellular routes (as opposed to receptor mediated transport, for example)."}, "[1]": {"test": "urinary mannitol clearance after inhaled mannitol in human subjects", "assay_type": "in vivo", "details": "635 mg inhaled mannitol; urine over 24 hours, mass spectrometry; 6 subjects with asthma symptoms vs 2 healthy controls", "from_the_text": "Results are expressed as urinary mannitol clearance, or the concentration in the urine samples collected multiplied by the amount of urine produced. […] The horizontal bar indicates mean values."}, "[2]": {"design": "species or system C57BL/6 mice", "details": "mouse, in vivo", "from_the_text": "In this experiment, 6-8 week old C57BL/6 mice were infected with a clinical isolate of RSV 9 (strain A2) intranasally (i.n.) on day 0 (d0), and then challenged with orally inhaled mannitol on days 2 and 4 as indicated by the arrows in the schematic (top of figure). Two hours after each mannitol inhalation, urine was collected from mice by scruffing, and analyzed for mannitol using a colorimetric assay. They are expressed as fold change in urine mannitol relative to uninfected control mice on d0, which was set at 1. Data are mean±standard error of the mean, of n=5-6 mice per group. * indicated p<0.05."}}, "data": [{"smiles": "OC[C@@H](O)[C@@H](O)[C@H](O)[C@H](O)CO", "note": "[mannitol]", "values": [{"measurement": "flux of mannitol across the monolayer", "setting": "16HBE cells", "result": "non-saturable"}, {"measurement": "urinary mannitol clearance", "setting": "[1]", "result": "Subjects with asthma symptoms had higher mannitol clearance on average"}, {"measurement": "excretion of orally inhaled mannitol (fold change in urine mannitol relative to uninfected control mice on d0)", "setting": "[2]", "result": "higher in mice infected with respiratory syncytial virus (RSV) infection"}]}]}
